Experimental data as given in ChEMBL document CHEMBL3045652, “Biorational glycol diesters as dietary toxins versus bioefficacy of sucrose octanoate against lepidopteran larvae” (Ind Crops Prod, 2012).
Converted amounts (≈) assume the structure as drawn. The source made the active and inactive calls. The rule behind the calls is not given here.

Experiments:
[1] = test system: Spodoptera litura; experiment: Antifeedant activity against third-instar larval stage of Spodoptera litura fed with artificial diet containing compound assessed as relative consumption rate at 3.72 mg/ml after 3 days (reference value: 2.13 +/- 0.18 mg/mg/day); assay type: functional
[2] = test system: Helicoverpa armigera; experiment: Insecticidal activity against second-instar larval stage of Helicoverpa armigera assessed as increase in mortality applied as spray at 1 to 10 mg/ml after 72 hr; assay type: functional, organism-based
[3] = test system: Spodoptera litura; experiment: Insecticidal activity against second-instar larval stage of Spodoptera litura assessed as increase in mortality applied as spray at 1 to 10 mg/ml after 72 hr; assay type: functional, organism-based
[4] = test system: Helicoverpa armigera; experiment: Insecticidal activity against second-instar larval stage of Helicoverpa armigera fed with artificial diet containing compound assessed as mortality after 7 days; assay type: functional; details: 168 h
[5] = test system: Spodoptera litura; experiment: Insecticidal activity against second-instar larval stage of Spodoptera litura fed with artificial diet containing compound assessed as growth inhibition after 7 days; assay type: functional, organism-based; details: for EC50: 168 h
[6] = test system: Helicoverpa armigera; experiment: Insecticidal activity against second-instar larval stage of Helicoverpa armigera fed with artificial diet containing compound assessed as growth inhibition after 7 days; assay type: functional, organism-based; details: for EC50: 168 h
[7] = test system: Spodoptera litura; experiment: Antifeedant activity against third-instar larval stage of Spodoptera litura fed with artificial diet containing compound assessed as relative growth rate at 3.72 mg/ml after 3 days (reference value: 1.37 +/- 0.12 mg/mg/day); assay type: functional
[8] = test system: Spodoptera litura; experiment: Insecticidal activity against second-instar larval stage of Spodoptera litura fed with artificial diet containing compound assessed as mortality after 7 days; assay type: functional; details: 168 h
[9] = test system: Helicoverpa armigera; experiment: Antifeedant activity against third-instar larval stage of Helicoverpa armigera fed with artificial diet containing compound assessed as relative growth rate at 6.02 mg/ml after 3 days (reference value: 0.97 +/- 0.13 mg/mg/day); assay type: functional
[10] = test system: Helicoverpa armigera; experiment: Antifeedant activity against third-instar larval stage of Helicoverpa armigera fed with artificial diet containing compound assessed as relative consumption rate at 6.02 mg/ml after 3 days (reference value: 1.88 +/- 0.14 mg/mg/day); assay type: functional
[11] = test system: Spodoptera litura; experiment: Antifeedant activity against third-instar larval stage of Spodoptera litura fed with artificial diet containing compound assessed as efficiency index of ingested food at 3.72 mg/ml after 3 days (reference value: 64.5%); assay type: functional
[12] = test system: Helicoverpa armigera; experiment: Antifeedant activity against third-instar larval stage of Helicoverpa armigera fed with artificial diet containing compound assessed as efficiency index of ingested food at 6.02 mg/ml after 3 days (reference value: 52%); assay type: functional
[13] = test system: Spodoptera litura; experiment: Antifeedant activity against third-instar larval stage of Spodoptera litura fed with artificial diet containing compound assessed as efficiency index of ingested food at 3.98 mg/ml after 3 days (reference value: 64.5%); assay type: functional
[14] = test system: Spodoptera litura; experiment: Insecticidal activity against second-instar larval stage of Spodoptera litura assessed as mortality applied as spray after 72 hr; assay type: functional
[15] = test system: Helicoverpa armigera; experiment: Antifeedant activity against third-instar larval stage of Helicoverpa armigera fed with artificial diet containing compound assessed as efficiency index of ingested food at 3.94 mg/ml after 3 days (reference value: 52%); assay type: functional
[16] = test system: Spodoptera litura; experiment: Antifeedant activity against third-instar larval stage of Spodoptera litura fed with artificial diet containing compound assessed as relative consumption rate at 3.98 mg/ml after 3 days (reference value: 2.13 +/- 0.18 mg/mg/day); assay type: functional
[17] = test system: Helicoverpa armigera; experiment: Insecticidal activity against second-instar larval stage of Helicoverpa armigera assessed as mortality applied as spray after 72 hr; assay type: functional
[18] = test system: Helicoverpa armigera; experiment: Antifeedant activity against third-instar larval stage of Helicoverpa armigera fed with artificial diet containing compound assessed as relative growth rate at 3.94 mg/ml after 3 days (reference value: 0.97 +/- 0.13 mg/mg/day); assay type: functional
[19] = test system: Helicoverpa armigera; experiment: Antifeedant activity against third-instar larval stage of Helicoverpa armigera fed with artificial diet containing compound assessed as relative consumption rate at 3.94 mg/ml after 3 days (reference value: 1.88 +/- 0.14 mg/mg/day); assay type: functional
[20] = test system: Spodoptera litura; experiment: Antifeedant activity against third-instar larval stage of Spodoptera litura fed with artificial diet containing compound assessed as relative growth rate at 3.98 mg/ml after 3 days (reference value: 1.37 +/- 0.12 mg/mg/day); assay type: functional
[21] = test system: Helicoverpa armigera; experiment: Antifeedant activity against third-instar larval stage of Helicoverpa armigera fed with artificial diet containing compound assessed as efficiency index of ingested food at 5.16 mg/ml after 3 days (reference value: 52%); assay type: functional
[22] = test system: Spodoptera litura; experiment: Antifeedant activity against third-instar larval stage of Spodoptera litura fed with artificial diet containing compound assessed as efficiency index of ingested food at 3.34 mg/ml after 3 days (reference value: 64.5%); assay type: functional
[23] = test system: Spodoptera litura; experiment: Antifeedant activity against third-instar larval stage of Spodoptera litura fed with artificial diet containing compound assessed as relative consumption rate at 3.34 mg/ml after 3 days (reference value: 2.13 +/- 0.18 mg/mg/day); assay type: functional
[24] = test system: Helicoverpa armigera; experiment: Antifeedant activity against third-instar larval stage of Helicoverpa armigera fed with artificial diet containing compound assessed as relative growth rate at 5.16 mg/ml after 3 days (reference value: 0.97 +/- 0.13 mg/mg/day); assay type: functional
[25] = test system: Spodoptera litura; experiment: Antifeedant activity against third-instar larval stage of Spodoptera litura fed with artificial diet containing compound assessed as relative growth rate at 3.34 mg/ml after 3 days (reference value: 1.37 +/- 0.12 mg/mg/day); assay type: functional
[26] = test system: Helicoverpa armigera; experiment: Antifeedant activity against third-instar larval stage of Helicoverpa armigera fed with artificial diet containing compound assessed as relative consumption rate at 5.16 mg/ml after 3 days (reference value: 1.88 +/- 0.14 mg/mg/day); assay type: functional

Row | Structure (SMILES) | Activity [2] | Activity [3] | LC50 [4] | growth inhibition (GI) [5] | EC50 [5] | growth inhibition (GI) [6] | EC50 [6] | LC50 [8] | further results
1 | CCCC(=O)OCCOC(=O)CCC [ETHYLENE GLYCOL DIBUTANOATE] | Active | Active | 2000 µg/mL (≈ 9.89 mM) | Dose-dependent effect | 1850 µg/mL (≈ 9.15 mM) | Dose-dependent effect | 2820 µg/mL (≈ 13.9 mM) | 2000 µg/mL (≈ 9.89 mM) | Activity [1]: 2.04 mg/mg/day; Activity [7]: 0.74 mg/mg/day; Activity [9]: 0.55 mg/mg/day; Activity [10]: 1.7 mg/mg/day; ECI [11]: 2%; ECI [12]: 32.4%
2 | CCCCCCCC(=O)OCCOC(=O)CCCCCCC [ETHYLENE GLYCOL DIOCTANOATE] |  |  | 3140 µg/mL (≈ 9.99 mM) | Dose-dependent effect | 1980 µg/mL (≈ 6.3 mM) | Dose-dependent effect | 2080 µg/mL (≈ 6.61 mM) | 2000 µg/mL (≈ 6.36 mM) | ECI [13]: 8%; LC50 [14]: 6100 µg/mL (≈ 19.4 mM); ECI [15]: 36.5%; Activity [16]: 2 mg/mg/day; LC50 [17]: 6500 µg/mL (≈ 20.7 mM); Activity [18]: 0.69 mg/mg/day; Activity [19]: 1.9 mg/mg/day; Activity [20]: 0.72 mg/mg/day
3 | CCCCC(=O)OCCOC(=O)CCCC [ETHYLENE GLYCOL DIPENTANOATE] | Active | Active | 2000 µg/mL (≈ 8.68 mM) | Dose-dependent effect | 1840 µg/mL (≈ 7.99 mM) | Dose-dependent effect | 2120 µg/mL (≈ 9.21 mM) | 2340 µg/mL (≈ 10.2 mM) | ECI [21]: 31.9%; ECI [22]: 4%; Activity [23]: 2.09 mg/mg/day; Activity [24]: 0.58 mg/mg/day; Activity [25]: 0.64 mg/mg/day; Activity [26]: 1.82 mg/mg/day
